# Patent US20040253292A1, “MR-signal emitting coatings” (Wisconsin Alumni Research Foundation, priority 2003, published 2004)
# Test: Diffusion of a fluorescent probe in swollen gelatin gel (FRAP)
# Type: physicochemical
# Conditions: coating thickness 60 μm; diffusion coefficient 9×10^ m^2s^−1
# Source text: To assess the stability of DTPA[Gd(III)] in the gelatin coating, the diffusion of a fluorescence probe in gelatin was studied by the technique of fluorescence recovery after photobleaching (FRAP). The instrument and data analysis scheme are described in Kim, S. H. and Yu, H., J. Phys. Chem. 1992, 96, 4034, which is hereby fully incorporated by reference. Fluorescein was used as the fluorescence probe due, in part, to its molecular size being roughly the same as that of DTPA[Gd(III)].
# The focus of the study was to examine the possible retardation effects of gelatin concentration and cross-link density on the diffusion, which was determined at room temperature, i.e., below the gel point of gelatin. The diffusion of fluorescein probe slows down with the increase of gelatin concentration. The diffusion coefficient decreases from 1.5×10^−10 to 9×10^−12 m^2s^−1 when the concentration of gelatin increases from 9% to 40%. […] Accordingly, the probe diffusion is more likely controlled by the concentration of gelatin rather than the cross-link density. On the other hand, the cross-link density may determine the swelling ratio of gelatin, i.e., the concentration of gelatin in aqueous solution. […]
compound,measurement,value
"O=C(O)CN(CCN(CC(=O)O)CC(=O)O)CCN(CC(=O)O)CC(=O)O [DTPA, diethylenetriaminepentaacetic acid]",time to diffuse out of the gelatin coating,about 67 seconds
